Assay results from US7435847B2, “Preparation of solid ammonium glyphosate using organic solvent in extraction” (priority 2002, dated 2008).

Tests used:
[1] = saturation concentrations of ammonium glyphosate in different aqueous methanol solutions; type: physicochemical; conditions: 30° C.
From the text: The amount of gaseous ammonia introduced is 1.01-1.5 times by mole as that of glyphosate added. When the ammonia is not enough, the reaction will not be carried out completely to cause the product having relatively more glyphosate, and thus a part of the water-soluble solid ammonium glyphosate may not be dissolved due to very low the solubility of glyphosate in water. If the ammonia is introduced in excess, relatively more free ammonia will remain in the system, thereby the ammonia will escape in subsequent processes to result in the environmental pollution. A relatively simple method for judging the end point of the reaction is to measure the pH of the reaction system. The inventor believes that the pH should be kept at 5-8. The solubility of ammonium glyphosate varies with the concentration of the aqueous methanol solution, the higher the concentration of aqueous methanol solution is, the lower the solubility of ammonium glyphosate is. The saturation concentrations of ammonium glyphosate in different concentrations of the aqueous methanol solution at 30° C. are listed in Table 1.

[2] = concentration of aqueous solutions of ammonium glyphosate salt at room temperature; type: physicochemical; conditions: water
From the text: Wherein m is a positive integer from 1 to 3, the ammonium cation may link to the hydroxyl which is bonded with a carbonyl or a phosphoryl. As for the single molecule, m equals 1-3. The generally used ammonium glyphosate salt is a mono-ammonium salt, namely, m equals 1. However, it may not be deemed simply that the ammonium glyphosate salt obtained in practical production has m just equal to a positive integer, but a value in the range of 0.8-1.3. These substances have very high solubility in water and the concentration of their aqueous solutions may be more than 20% at room temperature. However, they have very low solubility in such organic solvents that are completely miscible with any proportion of water or have a relatively high solubility in water. Thus, after the reaction is ended, such organic solvent(s) is(are) added to the reaction solution to form a homogeneous solution with water in the system, thereby substantially decreasing the solubility of the ammonium glyphosate salt therein and crystallizing the salt out. Such solvents may include, or may be, alcohols and acetals, etc. or a mixture of two or more solvents. The alcohols may include monobase alcohols having 1-4 carbon atoms. It is preferred to use methanol, ethanol, propanol, butanol and methylal in terms of cost effective, which can be used alone or as a mixture of thereof. […]

[3] = 25° C.; cited from earlier work

| Compound | Saturation concentration (w/w) % ([1]; content of methanol 5 (w/w) %, aqueous methanol solution) | Saturation concentration (w/w) % ([1]; content of methanol 20 (w/w) %, aqueous methanol solution) | Saturation concentration (w/w) % ([1]; content of methanol 40 (w/w) %, aqueous methanol solution) | Saturation concentration (w/w) % ([1]; content of methanol 60 (w/w) %, aqueous methanol solution) | Saturation concentration (w/w) % ([1]; content of methanol 80 (w/w) %, aqueous methanol solution) | Saturation concentration (w/w) % ([1]; content of methanol 100 (w/w) %) | concentration of aqueous solution [2] | solubility of glyphosate in water [3] [g per 100 g water] |
| --- | --- | --- | --- | --- | --- | --- | --- | --- |
| N.O=C(O)CNCP(=O)(O)O [ammonium glyphosate] | 18.2 (w/w) % | 8.9 (w/w) % | 4.3 (w/w) % | 1.5 (w/w) % | 0.9 (w/w) % | 0.6 (w/w) % | more than 20% | – |
| O=C(O)CNCP(=O)(O)O [glyphosate, N-phosphonomethyl glycine] | – | – | – | – | – | – | – | 1.2 |
